Key:
[1] = test system: NF-κB driven transcription (pNF-κB-luc reporter, 293 cells); test: 293/NF-kB-luc reporter cell assay; assay type: cell-based; conditions: Homo sapiens; compound 2 hours, then 20 ng/ml TNF-α for 18 hours; luminescence
Description: (§1) Two reporter cell assays were used to determine the ability of the compounds of Examples 1-12 to inhibit NF-κB driven transcription. The first assay was a 293-cell based assay with a stably integrated pNF-κB-luc reporter plasmid containing 3 NF-κB promoter elements. The second assay was a 293-cell based assay with a stably integrated pTRH1-NF-κB-dscGFP reporter containing 4 NF-κB promoter elements. Cells were treated with 0, 0.2, 1, 10, 20 and 40 μM of the compounds of Example 1-12 for 2 hours then were induced with 20 ng/ml TNF-α for 18 hours. Following the induction, luminescence or fluorescence was quantified using a Beckman-Coulter 2300 plate reader. […] As a control, 0.5% DMSO treated and untreated cells were compared to verify that the compounds of Examples 1-12 had no effect on the expression of luciferase or in the readout of the assay. There was a slight decrease in the output from the assay in the DMSO treated population although it was not statistically significant. As a result of the controls, the decrease in activity in the drug treated samples was compared to the DMSO control sample.

[2] = test system: NF-κB driven transcription (pTRH1-NF-κB-dscGFP reporter, 293 cells); test: NF-kB/293/GFP reporter cell assay; assay type: cell-based; conditions: Homo sapiens, HEK293; compound 2 hours, then 20 ng/ml TNF-α for 18 hours; fluorescence
Description: as §1

[3] = target: T1, c-Rel (Homo sapiens, UniProt Q04864); test: TransAM NF-κB Family DNA Binding ELISA, c-Rel
T1 sequence (Q04864 1-619): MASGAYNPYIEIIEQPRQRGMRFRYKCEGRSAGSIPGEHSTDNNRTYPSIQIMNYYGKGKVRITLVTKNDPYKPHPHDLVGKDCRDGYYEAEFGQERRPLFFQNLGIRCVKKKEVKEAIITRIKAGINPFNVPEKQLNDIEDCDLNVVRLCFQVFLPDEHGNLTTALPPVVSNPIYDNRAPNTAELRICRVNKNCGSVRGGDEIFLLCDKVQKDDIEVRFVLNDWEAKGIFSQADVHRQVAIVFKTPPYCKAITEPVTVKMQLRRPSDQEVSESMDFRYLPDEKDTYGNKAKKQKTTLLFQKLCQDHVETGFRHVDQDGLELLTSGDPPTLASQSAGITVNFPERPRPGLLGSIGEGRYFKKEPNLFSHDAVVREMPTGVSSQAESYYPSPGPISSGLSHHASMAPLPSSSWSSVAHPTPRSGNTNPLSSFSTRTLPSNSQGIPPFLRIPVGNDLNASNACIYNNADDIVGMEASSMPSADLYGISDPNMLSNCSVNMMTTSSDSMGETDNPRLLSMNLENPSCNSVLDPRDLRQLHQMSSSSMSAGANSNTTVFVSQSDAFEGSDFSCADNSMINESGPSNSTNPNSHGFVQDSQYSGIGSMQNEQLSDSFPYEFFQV
Description: The binding activity of NF-κB heterodimer or homodimer subunits from activated nuclear extracts or purified recombinant NF-κB proteins exposed to the drug compounds was evaluated using the TransAM NF-κB Family binding ELISA (Active Motif). Approximately 3-5 μg of nuclear extracts from TNFα activated Hela or Raji cells (Active Motif) or 20 ng of purified recombinant proteins (p65 and p50 from Active Motif, p52 from Santa Cruz) were incubated for 1 hour at room temperature with 20 μL drug compounds diluted in Complete Lysis buffer without DTT. Treated samples were then transferred to 30 μL Complete Binding Buffer (with DTT) in microplate wells pre-coated with the NF-κB consensus oligonucleotide. […] The plate was incubated for 1 hour at room temperature with gentle shaking and then washed 3 times with 200 μL 1× Wash Buffer. NF-κB p65, p50, p52, RelB, or c-Rel subunits bound to the plate were detected with 100 μL of the primary antibody (diluted 1:1000 in 1× Antibody Buffer) specific for that subunit. The plate was incubated for 1 hour at room temperature and then washed 3 times with 200 μL 1× Wash Buffer. Next, 100 μL of a HRP conjugated goat anti-rabbit antibody (diluted 1:1,000 in 1× Antibody Buffer) was added to each well. The plate was incubated for 1 hour at room temperature and then washed 4 times with 200 μL 1× Wash Buffer. 100 μL of room temperature Developing Solution was added to each well. The reaction was allowed to develop for 2-10 minutes until a medium dark blue color developed (depending on the subunit activity in the lot of extract or lot of recombinant protein used) and then the reaction was stopped with 100 μL Stop Solution yielding a yellow color. Absorbance was recorded using a Becton-Dickinson DTX 880 Multimode Detector at 450 nm with a reference wavelength subtracted at 620 nm.

SMILES	inhibition at 5 µM [3] [%]	EC50 [1] [µM]	EC50 [2] [µM]
CC(C)OC(=O)Oc1ccccc1C(=O)NC1=CC(=O)C2OC2C1OC(=O)OC(C)C (racemic) [Example 2, (±)-3-(2-isopropoxycarbonyloxy-benzoylamino)-5-oxo-7-oxa-bicyclo[4.1.0]hept-3-en-2-yl ester isopropyl ester]	0	11	
CC(C)OC(=O)OC1C(NC(=O)c2ccccc2O)=CC(=O)C2OC21 (racemic) [Example 8]	2	10	14
CCCCC(CC)C(=O)Oc1ccccc1C(=O)NC1=CC(=O)C2OC2C1O (racemic) [Example 5, (±)-2-(2-hydroxy-5-oxo-7-oxabicyclo[4.1.0]hept-3-en-3-ylcarbamoyl)phenyl 2-ethylhexanoate]	9	15	6.7
CC(C)OC(=O)Oc1ccccc1C(=O)NC1=CC(=O)C2OC2C1O (racemic) [Example 7, (±)-2-(2-hydroxy-5-oxo-7-oxabicyclo[4.1.0]hept-3-en-3-ylcarbamoyl)phenyl isopropyl carbonate]	5	17	8.4
CCCC(C)C(=O)Oc1ccccc1C(=O)NC1=CC(=O)C2OC2C1O (racemic) [Example 4, (±)-2-(2-hydroxy-5-oxo-7-oxabicyclo[4.1.0]hept-3-en-3-ylcarbamoyl)phenyl 2-methylpentanoate]	9	10	17

Now from value to compound, other results behind:

inhibition at 5 µM [3] [%]	SMILES	EC50 [1] [µM]	EC50 [2] [µM]
3	O=C(CC1CCCCC1)Oc1ccccc1C(=O)NC1=CC(=O)C2OC2C1O (racemic) [Example 3, (±)-2-(2-hydroxy-5-oxo-7-oxabicyclo[4.1.0]hept-3-en-3-ylcarbamoyl)phenyl 2-cyclohexylacetate]	14	10
1	CC(C)CC(=O)Oc1ccccc1C(=O)NC1=CC(=O)C2OC2C1O (racemic) [Example 1, (±)-2-(2-hydroxy-5-oxo-7-oxabicyclo[4.1.0]hept-3-en-3-ylcarbamoyl)phenyl 3-methylbutanoate]	18	11
6	CC(C)(C)CC(=O)Oc1ccccc1C(=O)NC1=CC(=O)C2OC2C1O (racemic) [Example 6, (±)-2-(2-hydroxy-5-oxo-7-oxabicyclo[4.1.0]hept-3-en-3-ylcarbamoyl)phenyl 3,3-dimethylbutanoate]	8	10

— patent US20120088827A1 (Profectus Biosciences, Inc., priority 2009, published 2012)
